The subject of one data set is wild type E. coli K12. The class given is cell-based. The protocol: Antibacterial Assays. The antibacterial activity of the LL-37 peptides and its analogues was analyzed using the standard approach of microdilution (Wang et al. (2005) J. Biol. Chem., 280:5803-5811; Yu et al. (2002) J. Pept. Res., 60:1-9). In brief, a small culture of wild type E. coli K12 was grown overnight. A fresh culture was inoculated with a small aliquot of the overnight culture and incubated at 37° C. until the optical density reached the mid-logarithmic stage. The culture (90 μL each) was then diluted to an A600 of 0.001 and partitioned into a 96-well plate with ˜10^6 cells per well. […] Each peptide assay was repeated 3 times. The plate was then further incubated at 37° C. overnight (˜16 hours) and read on an Ultra Microplate Reader at 620 nm (Bio-TEK Instruments; Winooski, Vt.).

Another data set relates to drug-resistant KBv. The data set can be described thus: Anticancer/cytotoxicity MTT assay, KBv cells. The class given is cell-based. The conditions noted are these: peptide concentration that kills 50% of the cells, 68 hours of exposure, read-out: KBv LC50. The protocol: (§1) Anticancer Assays. Cytotoxicity studies were performed using the calorimetric MTT assays for assessing cell viability (Mark et al. (1999) Life Sci., 64:1941-1953; Hansen et al. (1989) J. Immunol. Methods, 119:203-210). Three cell lines were used, including drug-resistant KBv, drug-sensitive KB, and the nontransformed human brain microvessel endothelial cells (HBMEC). In brief, the cells were seeded onto 96-well plates at a density of 5000 cells per well. The cells were exposed to various concentrations (5-320 μM) of LL-37 peptides (triplicate assays for each) 24 hours after seeding. After 68 hours of exposure, the peptide solution was replaced with fresh media and followed by cytotoxicity analysis using the MTT assay.
(§2) The MTT assay was performed by incubating the cells with 5 mg/mL of 3-[4,5-dimethylthiazol-2-yl]-2,5-dephenyltetrazolium bromide (MTT) for 2 hours at 37° C. The cells were then solubilized in a 50:50 mixture of dimethyl formamide (DMF) and H2O containing 20% SDS (pH 4.7). The plates were read after overnight incubation. Viability is directly proportional to the amount of metabolic conversion of MTT to formazin in the mitochondria of living cells and is assessed by measuring the absorbance at 550 nm using a Microkinetics Reader (Fisher Biotech). Viability is expressed as a percent of control cells receiving only culture media without any peptides. The data from the cytotoxicity studies were plotted using Microsoft Excel, and the LC50 (concentration resulting in 50% reduction in cell viability) and standard deviations were determined for each peptide.
On the technique in general: Tetrazolium assays rely on reduction of a dye to a coloured formazan, in cell work by metabolically active cells.

The next data set deals with drug-sensitive KB. The class given is cell-based. Particulars: peptide concentration that kills 50% of the cells; MTT, 68 hours of exposure. The protocol:
as §1, §2

Data set [1] in a line: Cytotoxicity MTT assay, HBMEC. The data set is classed as cell-based. Particulars: normal human cells, peptide concentration that kills 50% of the cells, 68 hours of exposure, read-out: HBMEC LC50. The protocol: as §1, §2
Data set [2] is described as follows: Analytical reversed-phase HPLC retention time as a measure of hydrophobicity. The class given is physicochemical. Particulars: for tRP, retention time on a reversed-phase HPLC column as a measure of hydrophobicity: Table 1, 1 mL/min, ~25° C.; for tRP, retention time on a reversed-phase HPLC column as a measure of hydrophobicity / tRP, retention time on a reverse-phase column of HPLC as a measure of hydrophobicity: Vydac C18, acetonitrile 5% to 95%; for tRP, retention time on a reverse-phase column of HPLC as a measure of hydrophobicity: Table 4, 1 ml/min. The protocol: Analytical Reversed-Phase HPLC. The retention time of the peptide was measured on an ISCO (Lincoln, Nebr.) HPLC system equipped with a Vydac (Hesperia, Calif.) C18 reversed-phase column (250×4.6 mm) at an ambient temperature of ˜25° C. The peptide was eluted with a linear gradient of acetonitrile (containing 0.1% TFA) from 5% to 95% at a flow rate of 1 mL/min. Peptides were detected by UV absorbance at 215 nm.
Analytical reverse-phase HPLC. The retention time of each peptide was measured on an ISCO HPLC system equipped with aVydac C18 reverse-phase column (250×4.6 mm). The peptide was eluted with a linear gradient of acetonitrile (containing 0.1% TFA) from 5% to 95% at a flow rate of 1 ml/min. Peptides were detected by UV absorbance at 215 nm.

Data set [3] relates to E. coli strain K12 3000. The conditions noted are these: minimum concentration at which E. coli growth is completely inhibited; from Wang et al. (2005) J. Biol. Chem. 280:5803; cited from earlier work.
The subject of another data set is Escherichia coli D21. Particulars: Escherichia coli D21, previous assays (Johansson 1998; Oren 1999); cited from earlier work.
For data set [4], the system named is E. coli strain K12 3000. The data set can be described thus: Antibacterial assay, microdilution MIC (Example 2). The conditions noted are these: minimum concentration at which E. coli growth is completely inhibited. The data set is classed as cell-based. The protocol: Antibacterial assay. The antibacterial activity of the peptides was analyzed using the standard microdilution approach (Wang et al. (2005) J. Biol. Chem., 280:5803-5811). In brief, a small culture of E. coli strain K12 3000 was grown overnight. A fresh culture was inoculated with a small aliquot of the overnight culture and incubated at 37° C. until the culture reached the logarithmic stage (A600 ˜0.5, 9×10^8 cells/ml). The culture was then diluted to A600 ˜0.001 and partitioned into a 96-well plate with ˜10^6 cells per well (90 μl each). Then, 10 μl aliquots of the peptide at different concentrations (three assays for each) were added to the cultures, allowing the minimum inhibition concentration (MIC) to be measured. The plate was then further incubated overnight (˜16 hours) at 37° C. and read on an Ultra Microplate Reader at 620 nm (Bio-TEK Instruments).
In general terms: In broth dilution the organism is exposed to a series of concentrations in liquid medium.

Where [5] appears, read: minimum inhibitory concentration, wild type E. coli K12, overnight (~16 hours) at 37° C.

Broadly, the MIC is the smallest concentration in the dilution series that meets the test's criterion for growth inhibition.

Like-named read-outs stand apart in the source and are kept apart here. Square brackets hold non-standard residues; d marks the D form. Ends that are not written are not given here. Peptide text beside a SMILES is read from it. Phg = N[C@H](C(=O)O)c1ccccc1

Consider “FKRIVQRIKDFLRNLV-NH2 [LL-37(17-32), FKRIVQRIKDFLRNLV]”, for which the “E. Coli MIC” value in the data set on wild type E. coli K12 (K12, 16 h) turned out to be 20 µM. The CC50 with drug-resistant KBv turned out to be 30 µM. For the same molecule, the “KB LC50” value in the data set with drug-sensitive KB worked out at 30 ± 1 µM. For the same molecule, in data set [1], the CC50 at 68 h was determined as 25 ± 1 µM.
For the molecule “GLFDIIKKIAESF [aurein 1.2, antimicrobial and anticancer peptide isolated from the Australian Bell Frog, reference compound]”, in data set [2], the “retention time on reversed-phase HPLC (hydrophobicity)” value (“retention time on reversed-phase HPLC” for short) amounted to 43 min; the “tRP, retention time on a reversed-phase HPLC column as a measure of hydrophobicity” value worked out at 42.0 min; the “tRP, retention time on a reverse-phase column of HPLC as a measure of hydrophobicity” value (from here on “tRP … of HPLC as a measure of hydrophobicity”) came to 43.0 min. For the same molecule, the MIC in the data set on E. coli strain K12 3000 [3] was 75 µM.
For the molecule `CC[C@H](C)[C@H](NC(=O)[C@H](CCCCN)NC(=O)[C@H](CCCCN)NC(=O)[C@@H](NC(=O)[C@@H](NC(=O)[C@H](CC(=O)O)NC(=O)[C@H](Cc1ccccc1)NC(=O)[C@H](CC(C)C)NC(=O)CN)[C@@H](C)CC)[C@@H](C)CC)C(=O)N[C@@H](C)C(=O)N[C@@H](CCC(=O)O)C(=O)N[C@@H](CO)C(=O)N[C@H](C(N)=O)c1ccccc1` [F13X-aurein 1.2, GLFDIIKKIAESX] (H-GLFDIIKKIAES[Phg]-NH2; N-terminus and C-terminus assumed), in data set [2], the “retention time on reversed-phase HPLC” value was 38.3 min and the “tRP … of HPLC as a measure of hydrophobicity” value worked out at 38.3 min.
For “LLGDFFRKSKEK [LL-37(1-12), LLGDFFRKSKEK]”, in the data set on drug-resistant KBv, the CC50 was more than 320 µM. Moreover, the CC50 at 68 h in data set [1] is more than 320 µM.
Take “LLGDFKRIVQRIKDF-NH2 [LL-37(1-4, 17-27), LLGDFKRIVQRIKDF]”: in the data set with wild type E. coli K12 (setting [5]), the “E. Coli MIC” value was 250 µM. Further, the CC50 in the data set with drug-resistant KBv is more than 320 µM. Further, the CC50 at 68 h in data set [1] is more than 320 µM.
Turning to `CC[C@H](C)[C@H](NC(=O)[C@H](CCCCN)NC(=O)[C@H](CCC(=O)O)NC(=O)[C@H](CCCCN)NC(=O)[C@H](CO)NC(=O)[C@H](CCCCN)NC(=O)[C@H](CCCNC(=N)N)NC(=O)[C@H](Cc1ccccc1)NC(=O)[C@H](Cc1ccccc1)NC(=O)[C@H](CC(=O)O)NC(=O)CNC(=O)[C@H](CC(C)C)NC(=O)[C@@H](N)CC(C)C)C(=O)NCC(=O)N[C@@H](CCCCN)C(=O)N[C@@H](CCC(=O)O)C(=O)N[C@@H](Cc1ccccc1)C(=O)N[C@@H](CCCCN)C(=O)N[C@@H](CCCNC(=N)N)C(=O)N[C@H](C(=O)N[C@H](C(=O)N[C@@H](CCC(N)=O)C(=O)N[C@@H](CCCNC(=N)N)C(=O)N[C@H](C(=O)N[C@@H](CCCCN)C(=O)N[C@@H](CC(=O)O)C(=O)N[C@@H](Cc1ccccc1)C(=O)N[C@@H](CC(C)C)C(=O)N[C@@H](CCCNC(=N)N)C(=O)N[C@@H](CC(N)=O)C(=O)N[C@@H](CC(C)C)C(=O)N[C@H](C(=O)N1CCC[C@H]1C(=O)N[C@@H](CCCNC(=N)N)C(=O)N[C@H](C(=O)N[C@@H](CCC(=O)O)C(=O)N[C@@H](CO)C(=O)O)[C@@H](C)O)C(C)C)[C@@H](C)CC)C(C)C)[C@@H](C)CC` [LL-37, reference compound], the “E. Coli MIC” value in the data set with wild type E. coli K12 (setting [5]) was 40 µM. For the same molecule, the MIC in the data set with Escherichia coli D21 is 5 to 25 µM.
Consider “RLFDKIRQVIRKF-NH2 (C-terminus assumed) [LLAA, RLFDKIRQVIRKF]”, for which, in data set [2], the “retention time on reversed-phase HPLC” value came out at 30.8 min and the “tRP … of HPLC as a measure of hydrophobicity” value was determined as 30.8 min.
Turning to “GLFDKLKSLVSDDKK [anchor, bacterial membrane anchor of glucose-specific enzyme IIA of E. coli, reference compound]”, in data set [2], the “retention time on reversed-phase HPLC” value stood at 29.5 min; the “tRP, retention time on a reversed-phase HPLC column as a measure of hydrophobicity” value is on record as 29.5 min; the “tRP … of HPLC as a measure of hydrophobicity” value is 29.5 min.
In the data set on E. coli strain K12 3000 [4], “GLFDIIKKIAESW-NH2 (C-terminus assumed) [F13W-aurein 1.2, GLFDIIKKIAESW]” registered an MIC of 320 µM. The “tRP … of HPLC as a measure of hydrophobicity” value in data set [2] worked out at 40.5 min.
In the case of “IGKEFKRIVQRIKDFLRNLVPRTES [LL-37(13-37)]”, in the data set with wild type E. coli K12 (K12, 16 h), the “E. Coli MIC” value came to 80 µM. Moreover, the CC50 in the data set with drug-resistant KBv was determined as 39 µM. The “KB LC50” value in the data set with drug-sensitive KB stood at 40 ± 0 µM. In addition, in data set [1], the CC50 at 68 h is 38 ± 3 µM.
“FKRIVQRIKDFLR-NH2 [LL-37(17-29), FKRIVQRIKDFLR]”: the “E. Coli MIC” value in the data set with wild type E. coli K12 (setting [5]) was 40 µM. In addition, in the data set on drug-resistant KBv, the CC50 came to 60 µM. In addition, in the data set with drug-sensitive KB, the “KB LC50” value was determined as 57 ± 3 µM. Moreover, in data set [1], the CC50 at 68 h stood at 55 ± 2 µM.

(Values after US7985836B2, “Antimicrobial peptides and methods of identifying the same” (priority 2006, dated 2011).)
